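Interpolation was linear, between the two tested concentrations surrounding the appropriate level; five concentrations were tested over 48 hours in 96-well plates. TGI denotes the concentration required for complete inhibition of growth.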
Legend:
Test in all cases: inhibition of tumour cell growth, NCI panel, 48 h
SR leukemia = test system: SR leukemia
SK-MEL-5 melanoma = test system: SK-MEL-5 melanoma
SNB-19 CNS = test system: SNB-19 CNS
K-562 leukemia = test system: K-562 leukemia
OVCAR-8 ovarian = test system: OVCAR-8 ovarian
OVCAR-4 ovarian = test system: OVCAR-4 ovarian
SK-OV-3 ovarian = test system: SK-OV-3 ovarian
U251 CNS = test system: U251 CNS
A498 renal = test system: A498 renal
HL-60(TB) leukemia = test system: HL-60(TB) leukemia
HCT-116 colon = test system: HCT-116 colon
M14 melanoma = test system: M14 melanoma
OVCAR-3 ovarian = test system: OVCAR-3 ovarian
SN12C renal = test system: SN12C renal
BT-549 breast = test system: BT-549 breast
NCI-H23 lung = test system: NCI-H23 lung
PC-3 prostate = test system: PC-3 prostate
LOX IMVI melanoma = test system: LOX IMVI melanoma
MDA-MB-231 breast = test system: MDA-MB-231 breast
SF-539 CNS = test system: SF-539 CNS
CCRF-CEM leukemia = test system: CCRF-CEM leukemia
HOP-92 NSCLC = test system: HOP-92 NSCLC
SF-295 CNS = test system: SF-295 CNS
786-0 renal = test system: 786-0 renal
ACHN renal = test system: ACHN renal
COLO 205 colon = test system: COLO 205 colon
SNB-75 CNS = test system: SNB-75 CNS
MDA-N = test system: MDA-N
T-47D breast = test system: T-47D breast
MOLT-4 leukemia = test system: MOLT-4 leukemia
CAKI-1 renal = test system: CAKI-1 renal
NCI-H226 lung = test system: NCI-H226 lung
RPMI-8226 leukemia = test system: RPMI-8226 leukemia
MALME-3M melanoma = test system: MALME-3M melanoma
UACC-257 melanoma = test system: UACC-257 melanoma
MCF7 breast = test system: MCF7 breast
EKVX NSCLC = test system: EKVX NSCLC
HS 578T breast = test system: HS 578T breast
HOP-62 NSCLC = test system: HOP-62 NSCLC
HCT-15 colon = test system: HCT-15 colon
IGROV1 ovarian = test system: IGROV1 ovarian
TK-10 renal = test system: TK-10 renal
NCI-H522 lung = test system: NCI-H522 lung
MDA-MB-435 = test system: MDA-MB-435
UACC-62 melanoma = test system: UACC-62 melanoma
NCI/ADR-RES ovarian = test system: NCI/ADR-RES ovarian
RXF 393 renal = test system: RXF 393 renal
DU-145 prostate = test system: DU-145 prostate
UO-31 renal = test system: UO-31 renal
KM12 colon = test system: KM12 colon
SK-MEL-28 melanoma = test system: SK-MEL-28 melanoma
SW-620 colon = test system: SW-620 colon
NCI-H460 lung = test system: NCI-H460 lung
A549 NSCLC = test system: A549 NSCLC
SF-268 CNS = test system: SF-268 CNS
OVCAR-5 ovarian = test system: OVCAR-5 ovarian
HT29 colon = test system: HT29 colon

COc1cc2c(cc1OC)C13CC[N+]4(C)CC5=CCOC6CC(=O)N2C1C6C5CC34[O-] (stereo not drawn)
TGI (SR leukemia): > 100 µM | TGI (SK-MEL-5 melanoma): > 100 µM | TGI (SNB-19 CNS): > 100 µM | TGI (K-562 leukemia): > 100 µM | TGI (OVCAR-8 ovarian): > 100 µM | TGI (OVCAR-4 ovarian): > 100 µM | TGI (SK-OV-3 ovarian): > 100 µM | TGI (U251 CNS): > 100 µM | TGI (A498 renal): > 100 µM | TGI (HL-60(TB) leukemia): > 100 µM | TGI (HCT-116 colon): > 100 µM | TGI (M14 melanoma): > 100 µM | TGI (OVCAR-3 ovarian): > 100 µM | TGI (SN12C renal): > 100 µM | TGI (BT-549 breast): > 100 µM | TGI (NCI-H23 lung): > 100 µM | TGI (PC-3 prostate): > 100 µM | TGI (LOX IMVI melanoma): > 100 µM | TGI (MDA-MB-231 breast): > 100 µM | TGI (SF-539 CNS): > 100 µM | TGI (CCRF-CEM leukemia): > 100 µM | TGI (HOP-92 NSCLC): > 100 µM | TGI (SF-295 CNS): > 100 µM | TGI (786-0 renal): > 100 µM | TGI (ACHN renal): > 100 µM | TGI (COLO 205 colon): > 100 µM | TGI (SNB-75 CNS): > 100 µM | TGI (MDA-N): > 100 µM | TGI (T-47D breast): > 100 µM | TGI (MOLT-4 leukemia): > 100 µM | TGI (CAKI-1 renal): > 100 µM | TGI (NCI-H226 lung): > 100 µM | TGI (RPMI-8226 leukemia): > 100 µM | TGI (MALME-3M melanoma): > 100 µM | TGI (UACC-257 melanoma): > 100 µM | TGI (MCF7 breast): > 100 µM | TGI (EKVX NSCLC): > 100 µM | TGI (HS 578T breast): > 100 µM | TGI (HOP-62 NSCLC): > 100 µM | TGI (HCT-15 colon): > 100 µM | TGI (IGROV1 ovarian): > 100 µM | TGI (TK-10 renal): > 100 µM | TGI (NCI-H522 lung): > 100 µM | TGI (MDA-MB-435): > 100 µM | TGI (UACC-62 melanoma): > 100 µM | TGI (NCI/ADR-RES ovarian): > 100 µM | TGI (RXF 393 renal): > 100 µM | TGI (DU-145 prostate): > 100 µM | TGI (UO-31 renal): > 100 µM | TGI (KM12 colon): > 100 µM | TGI (SK-MEL-28 melanoma): > 100 µM | TGI (SW-620 colon): > 100 µM | TGI (NCI-H460 lung): > 100 µM | TGI (A549 NSCLC): > 100 µM | TGI (SF-268 CNS): > 100 µM

S=C1CC(c2ccccc2)Sc2ccc(Cl)cc2N1 (stereo not drawn)
TGI (SR leukemia): > 100 µM | TGI (SK-MEL-5 melanoma): > 100 µM | TGI (SNB-19 CNS): > 100 µM | TGI (K-562 leukemia): > 100 µM | TGI (OVCAR-8 ovarian): > 100 µM | TGI (OVCAR-4 ovarian): > 100 µM | TGI (SK-OV-3 ovarian): > 100 µM | TGI (U251 CNS): > 100 µM | TGI (HL-60(TB) leukemia): > 100 µM | TGI (HCT-116 colon): > 100 µM | TGI (M14 melanoma): > 100 µM | TGI (OVCAR-3 ovarian): > 100 µM | TGI (SN12C renal): > 100 µM | TGI (BT-549 breast): > 100 µM | TGI (NCI-H23 lung): > 100 µM | TGI (PC-3 prostate): > 100 µM | TGI (LOX IMVI melanoma): > 100 µM | TGI (MDA-MB-231 breast): > 100 µM | TGI (CCRF-CEM leukemia): > 100 µM | TGI (SF-295 CNS): 92.6 µM | TGI (OVCAR-5 ovarian): > 100 µM | TGI (786-0 renal): 59.5 µM | TGI (ACHN renal): > 100 µM | TGI (COLO 205 colon): > 100 µM | TGI (SNB-75 CNS): > 100 µM | TGI (MDA-N): > 100 µM | TGI (T-47D breast): > 100 µM | TGI (MOLT-4 leukemia): > 100 µM | TGI (CAKI-1 renal): > 100 µM | TGI (NCI-H226 lung): > 100 µM | TGI (RPMI-8226 leukemia): > 100 µM | TGI (MALME-3M melanoma): > 100 µM | TGI (UACC-257 melanoma): > 100 µM | TGI (MCF7 breast): > 100 µM | TGI (EKVX NSCLC): > 100 µM | TGI (HS 578T breast): 48.3 µM | TGI (HOP-62 NSCLC): > 100 µM | TGI (HCT-15 colon): > 100 µM | TGI (IGROV1 ovarian): > 100 µM | TGI (TK-10 renal): > 100 µM | TGI (NCI-H522 lung): > 100 µM | TGI (MDA-MB-435): > 100 µM | TGI (UACC-62 melanoma): > 100 µM | TGI (NCI/ADR-RES ovarian): > 100 µM | TGI (HT29 colon): > 100 µM | TGI (RXF 393 renal): 25.7 µM | TGI (DU-145 prostate): > 100 µM | TGI (UO-31 renal): > 100 µM | TGI (KM12 colon): > 100 µM | TGI (SK-MEL-28 melanoma): > 100 µM | TGI (NCI-H460 lung): > 100 µM | TGI (A549 NSCLC): > 100 µM | TGI (SF-268 CNS): > 100 µM

Reference: PubChem BioAssay (NCI)
